Data reported in patent US8952024B2, “Herbicidal pyrimidone derivatives” (E I du Pont de Nemours and Company, priority 2009, dated 2015).

Experiments:
Format in all cases: in vivo
[1] = test system: barnyardgrass (Echinochloa crus-galli); experiment: Test B flooded paddy test; conditions: for Plant response rating, Flood, Barnyardgrass: 250 g ai/ha, flooded paddy test, visual rating on 0 to 100 scale (0 no effect, 100 complete control) after 13 to 15 days; for Plant response rating, Barnyardgrass: Flood (flooded paddy test), 13 to 15 days
How it was run: (§1)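 Each compound is added to standing floodwater (3 cm above soil, maintained) in pots of 2-leaf-stage plants; greenhouse exposure lasts 13–15 d before visual comparison with controls on a 0–100 control scale.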

[2] = test system: umbrella sedge (Cyperus difformis); experiment: Test B flooded paddy test; conditions: for Plant response rating, Flood, Sedge, Umbrella: 250 g ai/ha, flooded paddy test, visual rating on 0 to 100 scale (0 no effect, 100 complete control) after 13 to 15 days; for Plant response rating, Sedge, Umbrella: Flood (flooded paddy test), 13 to 15 days
How it was run: as §1

rice (Oryza sativa) = experiment: Test B flooded paddy test; conditions: for Plant response rating, Flood, Rice: 250 g ai/ha, flooded paddy test, visual rating on 0 to 100 scale (0 no effect, 100 complete control) after 13 to 15 days; for Plant response rating, Rice: Flood (flooded paddy test), 13 to 15 days
How it was run: as §1

[3] = test system: ducksalad (Heteranthera limosa); experiment: Test B flooded paddy test; conditions: for Plant response rating, Flood, Ducksalad: 250 g ai/ha, flooded paddy test, visual rating on 0 to 100 scale (0 no effect, 100 complete control) after 13 to 15 days; for Plant response rating, Ducksalad: Flood (flooded paddy test), 13 to 15 days
How it was run: as §1

[4] = test system: wheat (Triticum aestivum); experiment: Test A pre-/postemergence plant response
How it was run: (§2)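 Injury scores (0, no effect; 100, complete control) come from visual comparison with untreated controls roughly ten days post-treatment. Test chemicals in a surfactant-containing non-phytotoxic solvent were applied as a directed soil spray preemergence and to one- to two-leaf seedlings postemergence.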

[5] = test system: velvetleaf (Abutilon theophrasti); experiment: Test A pre-/postemergence plant response
How it was run: as §2

[6] = test system: barnyardgrass (Echinochloa crus-galli); experiment: Test A pre-/postemergence plant response
How it was run: as §2

[7] = test system: large crabgrass (Digitaria sanguinalis); experiment: Test A pre-/postemergence plant response
How it was run: as §2

corn (Zea mays) = experiment: Test A pre-/postemergence plant response
How it was run: as §2

[8] = test system: pigweed (Amaranthus retroflexus); experiment: Test A pre-/postemergence plant response
How it was run: as §2

[9] = test system: giant foxtail (Setaria faberii); experiment: Test A pre-/postemergence plant response
How it was run: as §2

[10] = test system: morningglory (Ipomoea spp.); experiment: Test A pre-/postemergence plant response
How it was run: as §2

[11] = test system: winter barley (Hordeum vulgare); experiment: Test B postemergence plant response
How it was run: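 Visual ratings from 0 (no effect) to 100 (complete control), made against controls 13–15 days after treatment, kept in a greenhouse. Compounds were applied postemergence to potted plants at the 1- to 4-leaf stage (2–18 cm).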

[12] = 31 g ai/ha, scale of 0 to 100 where 0 is no effect and 100 is complete control
[13] = 62 g ai/ha, scale 0 to 100, 0 is no effect, 100 is complete control
[14] = 125 g ai/ha, scale 0 to 100, 0 is no effect, 100 is complete control
[15] = Postemergence, 125 g ai/ha, visual injury, 0 to 100 scale (0 no effect, 100 complete control), approx. ten days
[16] = Postemergence, 500 g ai/ha, 0 to 100 scale, 0 = no effect, 100 = complete control, approx. ten days
[17] = Preemergence, 125 g ai/ha, 0 to 100 scale, 0 = no effect, 100 = complete control
[18] = Preemergence, 500 g ai/ha, visual injury, 0 to 100 scale (0 no effect, 100 complete control), approx. ten days
[19] = 62 g ai/ha, scale of 0 to 100 where 0 is no effect and 100 is complete control
[20] = Flood, 31 g ai/ha, scale 0 to 100 (0 no effect, 100 complete control)
[21] = Postemergence, 125 g ai/ha, 0 to 100 scale where 0 is no effect and 100 is complete control
[22] = Postemergence, 500 g ai/ha, visual injury, 0 to 100 scale (0 no effect, 100 complete control), approx. ten days
[23] = Preemergence, 500 g ai/ha, 0 to 100 scale, 0 = no effect, 100 = complete control

Cc1cc(C)cc(-n2c(-c3ccccc3)ncc(C(=O)C3=C(O)CCCC3=O)c2=O)c1 [Compound 33]
Plant response rating, Flood, Barnyardgrass [1]: 40
Plant response rating, Barnyardgrass [1, 12]: 0
Plant response rating, Barnyardgrass [1, 13]: 20
Plant response rating, Barnyardgrass [1, 14]: 30
Plant response rating, Flood, Sedge, Umbrella [2]: 85
Plant response rating, Sedge, Umbrella [2, 12]: 20
Plant response rating, Sedge, Umbrella [2, 13]: 30
Plant response rating, Sedge, Umbrella [2, 14]: 50
Plant response rating, Flood, Rice (rice (Oryza sativa)): 50
Plant response rating, Rice (rice (Oryza sativa); [12]): 0
Plant response rating, Rice (rice (Oryza sativa); [13]): 0
Plant response rating, Rice (rice (Oryza sativa); [14]): 20
Plant response rating, Flood, Ducksalad [3]: 95
Plant response rating, Ducksalad [3, 12]: 60
Plant response rating, Ducksalad [3, 13]: 75
Plant response rating, Ducksalad [3, 14]: 80
Wheat plant response rating [4, 15]: 0
Plant response rating, Wheat [4, 16]: 20
Plant response rating, Wheat [4, 17]: 0
Plant response rating, Wheat [4, 18]: 10
Velvetleaf plant response rating [5, 15]: 100
Plant response rating, Velvetleaf [5, 16]: 100
Plant response rating, Velvetleaf [5, 17]: 50
Plant response rating, Velvetleaf [5, 18]: 80
Barnyardgrass plant response rating [6, 15]: 80
Plant response rating, Barnyardgrass [6, 16]: 100
Plant response rating, Barnyardgrass [6, 17]: 10
Plant response rating, Barnyardgrass [6, 18]: 90
Crabgrass, Large plant response rating [7, 15]: 70
Plant response rating, Crabgrass, Large [7, 16]: 100
Plant response rating, Crabgrass, Large [7, 17]: 80
Plant response rating, Crabgrass, Large [7, 18]: 100
Corn plant response rating (corn (Zea mays); [15]): 0
Plant response rating, Corn (corn (Zea mays); [16]): 20
Plant response rating, Corn (corn (Zea mays); [17]): 0
Plant response rating, Corn (corn (Zea mays); [18]): 30
Pigweed plant response rating [8, 15]: 90
Plant response rating, Pigweed [8, 16]: 100
Plant response rating, Pigweed [8, 17]: 80
Plant response rating, Pigweed [8, 18]: 90
Foxtail, Giant plant response rating [9, 15]: 60
Plant response rating, Foxtail, Giant [9, 16]: 100
Plant response rating, Foxtail, Giant [9, 17]: 30
Plant response rating, Foxtail, Giant [9, 18]: 90
Morningglory plant response rating [10, 15]: 80
Plant response rating, Morningglory [10, 16]: 90
Plant response rating, Morningglory [10, 17]: 0
Plant response rating, Morningglory [10, 18]: 50
Plant response rating, Barley ([11]; Postemergence, 31 g ai/ha, scale 0 to 100 (0 no effect, 100 complete control)): 0
Plant response rating, Barley ([11]; Postemergence, 62 g ai/ha, scale 0 (no effect) to 100 (complete control), 13 to 15 days): 0
Plant response rating, Barley ([11]; Postemergence, 125 g ai/ha, visual rating after 13 to 15 days, scale 0 (no effect) to 100 (complete control)): 0
Barley plant response rating ([11]; Postemergence, 250 g ai/ha, scale 0 to 100): 0

O=C1CCCC(O)=C1C(=O)c1cnc(-c2ccccc2)n(C2CCSCC2)c1=O [Compound 164]
Plant response rating, Flood, Barnyardgrass [1]: 0
Plant response rating, Barnyardgrass [1, 19]: 0
Plant response rating, Barnyardgrass [1, 14]: 0
Barnyardgrass plant response rating [1, 20]: 0
Plant response rating, Flood, Sedge, Umbrella [2]: 90
Plant response rating, Sedge, Umbrella [2, 19]: 0
Plant response rating, Sedge, Umbrella [2, 14]: 0
Sedge, Umbrella plant response rating [2, 20]: 0
Plant response rating, Flood, Rice (rice (Oryza sativa)): 35
Plant response rating, Rice (rice (Oryza sativa); [19]): 0
Plant response rating, Rice (rice (Oryza sativa); [14]): 20
Rice plant response rating (rice (Oryza sativa); [20]): 0
Plant response rating, Flood, Ducksalad [3]: 85
Plant response rating, Ducksalad [3, 19]: 0
Plant response rating, Ducksalad [3, 14]: 0
Ducksalad plant response rating [3, 20]: 0
Plant response rating, Wheat [4, 21]: 0
Wheat plant response rating [4, 22]: 20
Plant response rating, Wheat [4, 17]: 0
Plant response rating, Wheat [4, 23]: 0
Plant response rating, Velvetleaf [5, 21]: 100
Velvetleaf plant response rating [5, 22]: 100
Plant response rating, Velvetleaf [5, 17]: 40
Plant response rating, Velvetleaf [5, 23]: 70
Plant response rating, Barnyardgrass [6, 21]: 100
Barnyardgrass plant response rating [6, 22]: 100
Plant response rating, Barnyardgrass [6, 17]: 10
Plant response rating, Barnyardgrass [6, 23]: 80
Plant response rating, Crabgrass, Large [7, 21]: 90
Crabgrass, Large plant response rating [7, 22]: 100
Plant response rating, Crabgrass, Large [7, 17]: 30
Plant response rating, Crabgrass, Large [7, 23]: 90
Plant response rating, Corn (corn (Zea mays); [21]): 10
Corn plant response rating (corn (Zea mays); [22]): 50
Plant response rating, Corn (corn (Zea mays); [17]): 0
Plant response rating, Corn (corn (Zea mays); [23]): 0
Plant response rating, Pigweed [8, 21]: 100
Pigweed plant response rating [8, 22]: 100
Plant response rating, Pigweed [8, 17]: 60
Plant response rating, Pigweed [8, 23]: 100
Plant response rating, Foxtail, Giant [9, 21]: 100
Foxtail, Giant plant response rating [9, 22]: 100
Plant response rating, Foxtail, Giant [9, 17]: 40
Plant response rating, Foxtail, Giant [9, 23]: 70
Plant response rating, Morningglory [10, 21]: 100
Morningglory plant response rating [10, 22]: 100
Plant response rating, Morningglory [10, 17]: 10
Plant response rating, Morningglory [10, 23]: 50
Barley plant response rating (0 to 100 scale) ([11]; 62 g ai/ha, postemergence, 0 is no effect, 100 is complete control, 13 to 15 days): 5
Plant response rating, Barley ([11]; Postemergence, 31 g ai/ha, 0 to 100 scale (0 no effect, 100 complete control)): 5
Plant response rating, Barley ([11]; Postemergence, 125 g ai/ha, scale 0 to 100 (0 no effect, 100 complete control)): 30
Plant response rating, Barley ([11]; Postemergence, 250 g ai/ha, scale 0 to 100 (0 no effect, 100 complete control), 13 to 15 days): 35
